Data set [1] in a line: Solubility of compound (1) in ethanol/water (2:1). The conditions noted are these: 40° C., stirred one hour, listed as V (form A). The data set is classed as physicochemical. The protocol: Samples of compound (1) (5 g) were suspended in ethanol/water (2:1, 100 mL) and stirred for one hour at temperatures of 22° C., 30° C., and 40° C., respectively. The suspensions were filtered and the solids dried in a vacuum oven at room temperature overnight to give the insoluble material. The solubilities were calculated by subtractive means based on recovered material.

The nature of data set [2]: Solubility compared to other polymorphs (solvent not given). The data set is classed as physicochemical.
Data set [3] relates to asthma and allergic diseases. Put plainly: Oral activity for treatment of asthma and allergic diseases. The data set is classed as in vivo.

≈ marks a conversion by molar mass, not a printed value. Like-named read-outs stand apart in the source and are kept apart here.

Usually Solubility stands for the dissolved amount per volume that the medium holds. On to `CCCc1c(SCCCOc2ccc(C(C)=O)c(OCCCC(=O)O)c2CCC)ccc(C(C)=O)c1O` [Form V, 4-[6-acetyl-3-[3-(4-acetyl-3-hydroxy-2-propylphenylthio)propoxy]-2-propylphenoxy]butyric acid], for which the Solubility in data set [1] came to 46 mg/mL (≈ 86.7 mM). The “solubility compared to other crystalline forms” value in data set [2] is “superior”; in data set [2] (listed as form A), “high”.

For `CCCc1c(SCCCOc2ccc(C(C)=O)c(OCCCC(=O)O)c2CCC)ccc(C(C)=O)c1O` [compound (1), 4-[6-acetyl-3-[3-(4-acetyl-3-hydroxy-2-propylphenylthio)propoxy]-2-propylphenoxy]butyric acid], in data set [3], the “oral activity for treatment of asthma and allergic diseases” value was “orally active”.

(Values after patent US7728169B2, “Pharmaceutical compositions of isolated orthorhombic crystalline 4-[6-acetyl-3-[3-(4-acetyl-3-hydroxy-2-propylphenylthio)propoxy]-2-propylphenoxy]butyric acid and methods of use” (Medicinova, Inc., priority 2003, dated 2010).)
